The source of these data is the NIST ThermoML archive (doi:10.1016/j.jct.2013.01.005).

This series in a line: activity coefficient (dimensionless); of the first substance listed, at infinite dilution; xn = mol fraction of the nth substance listed. As to conditions: 101 kPa, Liquid, Chromatography, x1 = 0.

± gives the expanded uncertainty stated by the source.

For the molecule `C#CCCCCC` [1-heptyne] + CCCCC[N+]1(C)CCCCC1.O=S(=O)([N-]S(=O)(=O)C(F)(F)F)C(F)(F)F, the activity coefficient reads like this: (308.15 K) 2.78 ± 0.19; (318.15 K) 2.81 ± 0.19; (328.15 K) 2.84 ± 0.19; (338.15 K) 2.87 ± 0.2; (348.15 K) 2.91 ± 0.2; (358.15 K) 2.94 ± 0.2.
Regarding `CCCC(C)=O` [pentan-2-one] + CCCCC[N+]1(C)CCCCC1.O=S(=O)([N-]S(=O)(=O)C(F)(F)F)C(F)(F)F, the activity coefficient was determined as 0.611 ± 0.043 (318.15 K); 0.629 ± 0.043 (328.15 K); 0.643 ± 0.044 (338.15 K); 0.666 ± 0.045 (348.15 K); 0.682 ± 0.046 (358.15 K).
Consider `C#CCCC` [1-pentyne] + CCCCC[N+]1(C)CCCCC1.O=S(=O)([N-]S(=O)(=O)C(F)(F)F)C(F)(F)F, for which the activity coefficient (308.15 K) is 1.54 ± 0.1; the activity coefficient (318.15 K) was 1.59 ± 0.11; the activity coefficient (328.15 K) turned out to be 1.62 ± 0.11; the activity coefficient (338.15 K) was found to be 1.64 ± 0.11; the activity coefficient (348.15 K) is 1.69 ± 0.11; the activity coefficient (358.15 K) is 1.73 ± 0.12.
On to `O` [water] + CCCCCC[N+]1(C)CCCCC1.O=S(=O)([N-]S(=O)(=O)C(F)(F)F)C(F)(F)F, for which the activity coefficient by setting is: (308.15 K) 5.31 ± 0.36; (318.15 K) 4.46 ± 0.3; (328.15 K) 3.81 ± 0.26; (338.15 K) 3.26 ± 0.22; (348.15 K) 2.8 ± 0.19; (358.15 K) 2.45 ± 0.17.
In the case of `CCCCO` [butan-1-ol] + CCCCC[N+]1(C)CCCCC1.O=S(=O)([N-]S(=O)(=O)C(F)(F)F)C(F)(F)F, the activity coefficient stood at 2.3 ± 0.16 (308.15 K); 2.16 ± 0.15 (318.15 K); 1.98 ± 0.13 (328.15 K); 1.82 ± 0.12 (338.15 K); 1.71 ± 0.11 (348.15 K); 1.57 ± 0.1 (358.15 K).
Consider `Cc1cccc(C)c1` [1,3-dimethylbenzene] + CCCCC[N+]1(C)CCCCC1.O=S(=O)([N-]S(=O)(=O)C(F)(F)F)C(F)(F)F, for which the activity coefficient stood at 1.15 ± 0.07 (308.15 K); 1.24 ± 0.08 (318.15 K); 1.28 ± 0.08 (328.15 K); 1.31 ± 0.09 (338.15 K); 1.36 ± 0.09 (348.15 K); 1.39 ± 0.09 (358.15 K).
Take `c1ccccc1` [benzene] + CCCCC[N+]1(C)CCCCC1.O=S(=O)([N-]S(=O)(=O)C(F)(F)F)C(F)(F)F: the activity coefficient (308.15 K) worked out at 0.696 ± 0.047; the activity coefficient (318.15 K) came to 0.703 ± 0.047; the activity coefficient (328.15 K) was 0.712 ± 0.047; the activity coefficient (338.15 K) came to 0.721 ± 0.048; the activity coefficient (348.15 K) was 0.744 ± 0.049; the activity coefficient (358.15 K) came to 0.753 ± 0.05.
As for `CCCCCCCCC` [nonane] + CCCCC[N+]1(C)CCCCC1.O=S(=O)([N-]S(=O)(=O)C(F)(F)F)C(F)(F)F, the activity coefficient stood at 24.2 ± 1.7 (308.15 K); 22.4 ± 1.5 (318.15 K); 21.1 ± 1.4 (328.15 K); 19.9 ± 1.4 (338.15 K); 19 ± 1.3 (348.15 K); 18 ± 1.2 (358.15 K).
Take `c1ccsc1` [thiophene] + CCCCCC[N+]1(C)CCCCC1.O=S(=O)([N-]S(=O)(=O)C(F)(F)F)C(F)(F)F: the activity coefficient came to 0.614 ± 0.043 (308.15 K); 0.627 ± 0.043 (318.15 K); 0.643 ± 0.044 (328.15 K); 0.655 ± 0.045 (338.15 K); 0.664 ± 0.045 (348.15 K); 0.675 ± 0.046 (358.15 K).
For `CCCO` [propan-1-ol] + CCCCCC[N+]1(C)CCCCC1.O=S(=O)([N-]S(=O)(=O)C(F)(F)F)C(F)(F)F, the activity coefficient (308.15 K) worked out at 2.05 ± 0.14; the activity coefficient (318.15 K) was 1.83 ± 0.12; the activity coefficient (328.15 K) is 1.67 ± 0.11; the activity coefficient (338.15 K) was found to be 1.53 ± 0.1; the activity coefficient (348.15 K) was found to be 1.43 ± 0.09; the activity coefficient (358.15 K) was 1.33 ± 0.09.
As for `CC1CCCCC1` [methylcyclohexane] + CCCCCC[N+]1(C)CCCCC1.O=S(=O)([N-]S(=O)(=O)C(F)(F)F)C(F)(F)F, the activity coefficient is, setting by setting: (308.15 K) 6.24 ± 0.43; (318.15 K) 6.05 ± 0.41; (328.15 K) 5.83 ± 0.4; (338.15 K) 5.59 ± 0.38; (348.15 K) 5.4 ± 0.37; (358.15 K) 5.2 ± 0.35.
Take `C1CCOC1` [tetrahydrofuran] + CCCCCC[N+]1(C)CCCCC1.O=S(=O)([N-]S(=O)(=O)C(F)(F)F)C(F)(F)F: the activity coefficient reads like this: (308.15 K) 0.563 ± 0.04; (318.15 K) 0.579 ± 0.041; (328.15 K) 0.594 ± 0.042; (338.15 K) 0.612 ± 0.043; (348.15 K) 0.627 ± 0.043; (358.15 K) 0.635 ± 0.044.
Turning to `C#CCCC` [1-pentyne] + CCCCCC[N+]1(C)CCCCC1.O=S(=O)([N-]S(=O)(=O)C(F)(F)F)C(F)(F)F, the activity coefficient was 1.42 ± 0.09 (308.15 K); 1.45 ± 0.1 (318.15 K); 1.48 ± 0.1 (328.15 K); 1.5 ± 0.1 (338.15 K); 1.53 ± 0.1 (348.15 K); 1.54 ± 0.1 (358.15 K).
As for `CCCCCCCCCC` [decane] + CCCCC[N+]1(C)CCCCC1.O=S(=O)([N-]S(=O)(=O)C(F)(F)F)C(F)(F)F, the activity coefficient came out at 31.9 ± 2.2 (308.15 K); 29.5 ± 2 (318.15 K); 27.9 ± 1.9 (328.15 K); 26.2 ± 1.8 (338.15 K); 25.1 ± 1.7 (348.15 K); 23.8 ± 1.6 (358.15 K).
For `Cc1ccccc1C` [1,2-dimethylbenzene] + CCCCCC[N+]1(C)CCCCC1.O=S(=O)([N-]S(=O)(=O)C(F)(F)F)C(F)(F)F, the activity coefficient was 1.04 ± 0.07 (308.15 K); 1.08 ± 0.07 (318.15 K); 1.1 ± 0.07 (328.15 K); 1.13 ± 0.07 (338.15 K); 1.16 ± 0.07 (348.15 K); 1.18 ± 0.08 (358.15 K).
With `C1=CCCCC1` [cyclohexene] + CCCCC[N+]1(C)CCCCC1.O=S(=O)([N-]S(=O)(=O)C(F)(F)F)C(F)(F)F, the activity coefficient amounted to 3.73 ± 0.25 (308.15 K); 3.63 ± 0.25 (318.15 K); 3.53 ± 0.24 (328.15 K); 3.39 ± 0.23 (338.15 K); 3.3 ± 0.22 (348.15 K); 3.21 ± 0.22 (358.15 K).
As to `CCCCC(C)=O` [2-hexanone] + CCCCC[N+]1(C)CCCCC1.O=S(=O)([N-]S(=O)(=O)C(F)(F)F)C(F)(F)F, the activity coefficient came out at 0.761 ± 0.05 (318.15 K); 0.779 ± 0.051 (328.15 K); 0.792 ± 0.052 (338.15 K); 0.822 ± 0.053 (348.15 K); 0.84 ± 0.054 (358.15 K).
Take `C=CCCCCC` [1-heptene] + CCCCC[N+]1(C)CCCCC1.O=S(=O)([N-]S(=O)(=O)C(F)(F)F)C(F)(F)F: the activity coefficient reads like this: (308.15 K) 7.42 ± 0.51; (318.15 K) 7.12 ± 0.49; (328.15 K) 6.88 ± 0.47; (338.15 K) 6.67 ± 0.45; (348.15 K) 6.48 ± 0.44; (358.15 K) 6.31 ± 0.43.
Take `CO` [methanol] + CCCCC[N+]1(C)CCCCC1.O=S(=O)([N-]S(=O)(=O)C(F)(F)F)C(F)(F)F: the activity coefficient is, setting by setting: (308.15 K) 1.45 ± 0.1; (318.15 K) 1.32 ± 0.09; (328.15 K) 1.21 ± 0.08; (338.15 K) 1.12 ± 0.07; (348.15 K) 1.07 ± 0.07; (358.15 K) 1 ± 0.06.
For the molecule `CCCCCO` [pentan-1-ol] + CCCCC[N+]1(C)CCCCC1.O=S(=O)([N-]S(=O)(=O)C(F)(F)F)C(F)(F)F, the activity coefficient runs as follows: (308.15 K) 2.5 ± 0.17; (318.15 K) 2.37 ± 0.16; (328.15 K) 2.2 ± 0.15; (338.15 K) 2.03 ± 0.14; (348.15 K) 1.94 ± 0.13; (358.15 K) 1.79 ± 0.12.
